Data from US7217710B2, “Substituted pyrazolopyrimidines” (SmithKline Beecham Corporation, priority 2001, dated 2007).

Each molecule was assayed against T1, GST-TIE2 (intracellular domains of human TIE2) (Homo sapiens, UniProt Q02763) (assay: TIE-2 Enzyme Assay (TIE2-E2), LANCE method). Settings: not given.
T1 construct: made in house
Assay type: biochemical
Description: TIE-2 Enzyme Assay (TIE2-E2
The TIE-2 enzyme assay uses the LANCE method (Wallac) and GST-TIE2, baculovirus-expressed recombinant constructs of the intracellular domains of human TIE2 (amino acids 762–1104, GenBank Accession # L06139) tagged by GST). The method measures the ability of the purified enzymes to catalyse the transfer of the γ-phosphate from ATP onto tyrosine residues in a biotinylated synthetic peptide, D1–15 (biotin-C6-LEARLVAYEGWVAGKKKamide). This peptide phosphorylation is detected using the following procedure: for enzyme preactivation, GST-TIE2 is incubated for 2 hours at room temperature with 80 μM ATP, 10 mM MgCl2, 0.1 mg/ml BSA, 0.01% Tween 20 and 1 mM DTT in 100 mM HEPES buffer (pH7.4). 5 nM preactivated GST-TIE2 is incubated for 2 hours at room temperature in 96 well plates with 1 uM D1–15 peptide, 80 uM ATP, 10 mM MgCl2, 0.1 mg/ml BSA, 0.01% Tween 20 and titrated test compound (diluted from a 10 mM stock in DMSO, final DMSO concentration is 2.4%) in 100 mM HEPES (pH7.4). The reaction is stopped by the addition of EDTA (final concentration 45 mM). Streptavidin linked-APC (allophycocyanin, PerkinElmer) and europium-labeled anti-phosphotyrosine antibody (PerkinElmer) are then added at the final concentration of 8 nM and 1 nM, respectively. The APC signal is measured using an Wallac Multilabel 1420 counter. (Wallac Berthold Japan). The percent inhibition of activity is calculated relative to blank control wells. The concentration of test compound that inhibits 50% of activity (IC50) is interpolated using nonlinear regression (Levernberg-Marquardt) and the equation, y=Vmax (1−x/(K+x))+Y2, where “K” is equal to the IC50. The IC50 values are converted to pIC50 values, i.e., −log IC50 in Molar concentration.

T1 sequence (Q02763 762-1104): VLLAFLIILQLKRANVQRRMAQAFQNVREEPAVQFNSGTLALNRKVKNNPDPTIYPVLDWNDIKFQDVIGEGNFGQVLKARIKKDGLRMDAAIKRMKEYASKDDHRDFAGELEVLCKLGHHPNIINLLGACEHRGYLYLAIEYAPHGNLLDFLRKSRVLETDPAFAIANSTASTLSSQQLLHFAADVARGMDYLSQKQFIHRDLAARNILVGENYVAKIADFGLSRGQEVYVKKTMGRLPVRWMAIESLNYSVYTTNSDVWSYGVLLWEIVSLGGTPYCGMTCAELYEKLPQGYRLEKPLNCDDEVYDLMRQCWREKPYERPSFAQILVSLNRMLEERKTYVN

Row | Molecule | TIE2 PIC50 TIE2-E2 assay
1 | 2,3-Dichloro-N-{4-[1-methyl-6-(3-diethylamino -propylamino)-1H-pyrazolo[3,4-d]pyrimidin-3-yl]-phenyl}-benzenesulfonamide [Example 107] | −− (−− = PIC50 less than 5.00)
2 | Cc1cc(-c2nn(C)c3nc(NCCN4CCOCC4)ncc23)ccc1NC(=O)Nc1cc(C(F)(F)F)ccc1F [Example 43, 1-(2-Fluoro-5-trifluoromethyl-phenyl)-3-{methyl-[methyl-(2-morpholin-4-yl-ethylamino)-1H-pyrazolo[3,4-d]pyrimidin-3-yl]-phenyl}-urea] | +++ (+++ = PIC50 = 7.00 to less than 7.40)
3 | Cc1cc(-c2nn(C)c3nc(NCCN4CCOCC4)ncc23)ccc1NC(=O)Nc1ccc(Cl)c(C(F)(F)F)c1 [Example 44, 1-(Chloro-trifluoromethyl-phenyl)-3-{methyl-[methyl-(2-morpholin-4-yl-ethylamino)-1H-pyrazolo[3,4-d]pyrimidin-3-yl]-phenyl}-urea] | ++ (++ = PIC50 = 6.00 to less than 7.00)
4 | Cc1cc(-c2nn(C)c3nc(NCCN4CCOCC4)ncc23)ccc1NC(=O)Nc1cccc(C(F)(F)F)c1 [Example 48, 1-{2-Methyl-4-[methyl-(2-morpholin-4-yl-ethylamino)-1H -pyrazolo[3,4-d]pyrimidin-3-yl]-phenyl}-3-(3-trifluoromethyl-phenyl)-urea] | ++ (++ = PIC50 = 6.00 to less than 7.00)
5 | Cn1nc(-c2ccc(NC(=O)Nc3cc(C(F)(F)F)ccc3F)cc2)c2cnc(Nc3cccc(Cl)c3)nc21 [Example 63] | ++ (++ = PIC50 = 6.00 to less than 7.00)
6 | CN1CCC(N(C)c2ncnc3[nH]nc(-c4ccc(NC(=O)Nc5cc(C(F)(F)F)ccc5F)cc4)c23)CC1 [Example 65, 1-(2-fluoro-5-trifluoromethyl-phenyl)-3-(4-[methyl-(1-methyl-piperidin-4-ylamino]-1H-pyrazolo[3,4-d]pyrimidin-3-yl]-phenyl}-urea] | + (+ = PIC50 = 5.00 to less than 6.00)

Same assay, conditions: read-out: TIE2 PIC50 TIE2-E2 assay

Row | Molecule | IC50 [nM]
7 | Cn1nc(-c2ccc(NC(=O)Nc3cc(C(F)(F)F)ccc3F)cc2)c2cnc(NCCOC(=O)Nc3cc(C(F)(F)F)ccc3F)nc21 [Example 30, (Fluoro-trifluoromethyl-phenyl)-carbamic acid 2-(3-{4-[3-(fluoro-trifluoromethyl-phenyl)-ureido]-phenyl}-1-methyl-1H-pyrazolo[3,4-d]pyrimidin-6-ylamino)-ethyl ester] | 1000 to 10000
8 | Cn1nc(-c2ccc(NC(=S)Nc3cccc(C(F)(F)F)c3)cc2)c2cnc(NCCN3CCOCC3)nc21 [Example 36, 1-{4-[1-Methyl-6-(2-morpholin-4-yl-ethylamino)-1H-pyrazolo[3,4-d]pyrimidin-3-yl]-phenyl}-3-(3-trifluoromethyl-phenyl)-thiourea] | 100 to 1000
9 | CCc1cccc(NC(=O)Nc2ccc(-c3nn(C)c4nc(NCCN5CCOCC5)ncc34)cc2)c1 [Example 38, 1-(3-Ethyl-phenyl)-3-{4-[1-methyl-6-(2-morpholin-4-yl-ethylamino) -1H-pyrazolo[3,4-d]pyrimidin-3-yl]-phenyl}-urea] | 39.8 to 100
10 | CC(=O)c1cccc(NC(=O)Nc2ccc(-c3nn(C)c4nc(NCCN5CCOCC5)ncc34)cc2)c1 [Example 40, 1-(3-Acetyl-phenyl)-3-{4-[1-methyl-6-(2-morpholin-4-yl-ethylamino)-1H-pyrazolo[3,4-d]pyrimidin-3-yl]-phenyl}-urea] | 1000 to 10000
11 | CCc1cccc(NC(=O)Nc2ccc(-c3nn(C)c4nc(NCCN5CCOCC5)ncc34)cc2C)c1 [Example 45, 1-(3-Ethyl-phenyl)-3-{2-methyl-4-[1-methyl-6-(2-morpholin-4-yl-ethylamino)-1H-pyrazolo[3,4-d]pyrimidin-3-yl]-phenyl}-urea] | 100 to 1000
12 | Cc1cc(-c2nn(C)c3nc(NCCN4CCOCC4)ncc23)ccc1NC(=O)Nc1cc(C(F)(F)F)cc(C(F)(F)F)c1 [Example 47, 1-(Bis-trifluoromethyl-phenyl)-3-{methyl-[methyl-(2-morpholin-4-yl-methylamino)-1H-pyrazolo[3,4-d]pyrimidin-3-yl]-phenyl}-urea] | 100 to 1000
13 | CC(=O)c1cccc(NC(=O)Nc2ccc(-c3nn(C)c4nc(NCCN5CCOCC5)ncc34)cc2F)c1 [Example 54, 1-(3-Acetyl-phenyl)-3-{2-fluoro-4-[1-methyl-6-(2-morpholin-4-yl-ethylamino)-1H-pyrazolo[3,4-d]pyrimidin-3-yl]-phenyl}-urea] | 100 to 1000
14 | Cc1cc(-c2nn(C)c3nc(NCCN4CCOCC4)ncc23)ccc1NC(=S)Nc1cccc(C(F)(F)F)c1 [Example 58, 1-{2-Methyl-4-[1-methyl-6-(2-morpholin-4-yl-ethylamino)-1H -pyrazolo[3,4-d]-pyrimidin-3-yl]-phenyl}-3-(3-trifluoromethyl-phenyl)-thiourea] | 1000 to 10000
15 | Cn1nc(-c2ccc(NC(=O)Nc3cc(C(F)(F)F)ccc3F)cc2)c2cnc(NCc3ccccc3)nc21 [Example 62, 1-(2-fluoro-5-trifluoromethyl-phenyl)-3-{4-[1-methyl-6-(benzylamino)-1H-pyrazolo[3,4-d]pyrimidin-3-yl]-phenyl}-urea] | 1000 to 10000
16 | CN1CCC(Nc2ncc3c(-c4ccc(NS(=O)(=O)c5cccc(Cl)c5Cl)cc4)nn(C)c3n2)CC1 [Example 68] | 100 to 1000
17 | Cn1nc(-c2ccc(NC(=O)Nc3cc(C(F)(F)F)ccc3F)cc2)c2cnc(NCCc3ccccc3)nc21 [Example 81, 1-(2-Fluoro-5-trifluoromethyl-phenyl)-3-{4-[(1-methyl-6-phenethylamino)-1H-pyrazolo[3,4-d]pyrimidin-3-yl]-phenyl} urea] | 1000 to 10000
18 | Cn1nc(-c2ccc(NC(=O)Nc3cc(C(F)(F)F)ccc3F)cc2)c2cnc(NCCCN3CCCC3)nc21 [Example 86] | ≤ 39.8
19 | CN(C)CCCNc1ncc2c(-c3ccc(NC(=O)Nc4cc(C(F)(F)F)ccc4F)cc3)nn(C)c2n1 [Example 87, 1-(2-Fluoro-5-trifluoromethyl-phenyl)-3-{4-[1-methyl-6-(3-dimethylamino-propylamino)-1H-pyrazolo[3,4-d]pyrimidin-3-yl]-phenyl} urea] | ≤ 39.8
20 | Cn1nc(-c2ccc(NC(=O)Nc3cc(C(F)(F)F)ccc3F)cc2)c2cnc(NCCCN)nc21 [Example 94, 1-(2-Fluoro-5-trifluoromethyl-phenyl)-3-{4-[1-methyl-6-(3-amino-propylamino)-1H-pyrazolo[3,4-d]pyrimidin-3-yl]-phenyl} urea] | 39.8 to 100
21 | Cn1nc(-c2ccc(NC(=O)Nc3cc(C(F)(F)F)ccc3F)cc2)c2cnc(NCCCCN)nc21 [Example 95, 1-(2-Fluoro-5-trifluoromethyl-phenyl)-3-{4-[1-methyl-6-(4-amino-butylamino)-1H-pyrazolo[3,4-d]pyrimidin-3-yl]-phenyl} urea] | ≤ 39.8
22 | Cn1nc(-c2ccc(NC(=O)Nc3cc(C(F)(F)F)ccc3F)cc2)c2cnc(NCCCCNC(=N)N)nc21 [Example 99, 1-(2-Fluoro-5-trifluoromethyl-phenyl)-3-{4-[1-methyl-6-(4-guanidino-butylamino)-1H-pyrazolo[3,4-d]pyrimidin-3-yl]-phenyl} urea] | 39.8 to 100
23 | Cn1nc(-c2ccc(NS(=O)(=O)c3cccc(Cl)c3Cl)cc2)c2cnc(NCCCN3CCOCC3)nc21 [Example 103, 2,3-Dichloro-N-{4-[1-methyl-6-(3-morpholin-4-yl-propylamino)-1H-pyrazolo[3,4-d]pyrimidin-3-yl)-phenyl}-benzenesulfonamide] | > 10000
